In US11730723B2, “Compounds and methods for treating viral infections” (priority 2020, dated 2023):
In brackets after ≈: the same amount, converted by molar mass. Several values for one entry are separate records, joined by “and”; a condition that tells them apart may be missing. Equal entries are not always repeated. Where two headings read alike, the source gives them in different places.

Legend:
[1] = test system: MERS coronavirus (EMC strain); experiment: microbe, parasite or virus in culture; type: cell-based, MERS-CoV; settings: Middle East respiratory syndrome-related coronavirus
in vitro [2] = settings: African green monkey, Vero 76 cells
HCoV-OC43 [3] = experiment: HCoV-OC43 CPE assay in Huh-7 cells (neutral red uptake, 6 days); type: cell-based, human coronavirus (HCoV) OC43 strain; settings: for Raw OD-Absorbance 490 nm: infected Huh-7, neutral red uptake, individual replicates
in vitro [4] = settings: African green monkey
H292 cells (NCI-H292) = experiment: Cytotoxicity in uninfected H292 cells (MTT); settings: CC50, uninfected H292 cells
in vitro [5] = settings: African green monkey; remark: listed apart in the source
HCoV-OC43 [6] = experiment: HCoV-OC43 efficacy in H292 cells (MTT, 6 days); type: cell-based, HCoV-OC43 (Betacoronavirus 1)
[7] = test system: alpha coronavirus 229E (CoV-229E); experiment: CoV-229E virus-induced CPE inhibition in MRC-5 cells (XTT); settings: 6 days
[8] = test system: HBV wild-type strain ayw1; experiment: Primary anti-HBV assay in HepG2 2.2.15 cells (qPCR of HBV DNA); settings: Hepatitis B virus, HepG2 2.2.15, 144 h
Huh-7 cells = experiment: Cytotoxicity / viability of uninfected Huh-7 cells (XTT, 6 days); settings: 6 days, raw absorbance 490 nm, individual replicates, listed as Compd. 1
[9] = Cytotoxicity on MRC-5 cells (CellTiter Glo); settings: human, MRC-5 cells without virus
[10] = Cytotoxicity in HepG2 2.2.15 cells (MTS); type: cell-based; settings: human, same assay plate
[11] = test system: SARS-CoV-2 (USA-WA1/2020); experiment: microbe, parasite or virus in culture
[12] = test system: dengue virus (DENV) serotype 2 strain D2S221; experiment: Dengue virus D2S221 inhibition assay in Vero cells (immunostaining); settings: read-out: D2S221 IC50
[13] = Cytotoxicity on Huh7 cells (CellTiter Glo); settings: human, Huh7 cells without virus
HCoV 229E = HCoV 229E CPE assay in MRC-5 cells (CellTiter Glo); type: cell-based, human coronavirus (HCoV) 229E; settings: unidentified human coronavirus, MRC5; MRC-5 cells, CellTiter Glo; read-out: HCoV 229E CPE assay EC50
Vero E6 cells = settings: for viability of Vero E6 cells (percent of vehicle alone): 2-day treatment, mean ± SD of duplicates
HCoV OC43 = HCoV OC43 CPE assay in Huh7 cells (CellTiter Glo); type: cell-based, human coronavirus (HCoV) OC43; settings: Betacoronavirus 1, OC43, Huh-7; Huh7 cells, CellTiter Glo; read-out: HCoV OC43 CPE Assay EC50
[14] = test system: SARS-CoV-2 (USA-WA1/2020); settings: Compound 1 at 25 μM; HCQ at 5 μM; remdesivir 10 μM

**Q.** Which EC50 ([1]; Vero 76, read-out: EC50 measured by microscopic visual assay) does the source give for CC(C)C[C@](C)(N)COc1ccc(-c2ccnc(C(F)F)c2)nc1C(F)F [Compound 1, (S)-1-((2′,6-bis(difluoromethyl)-[2,4′-bipyridin]-5-yl)oxy)-2,4-dimethylpentan-2-amine] here?
**A.** 6.4 µg/mL (≈ 16.6 µM)

**Q.** What about the EC50 ([1]; Vero 76, read-out: EC50 measured by neutral red assay) of the same compound?
**A.** 5.4 µg/mL (≈ 14 µM)

**Q.** What about the CC50 (in vitro [2]; CC50 measured by microscopic visual assay) of the same compound?
**A.** 22 µg/mL (≈ 57.1 µM)

**Q.** And the CC50 (in vitro [2]; CC50 measured by neutral red assay)?
**A.** 11 µg/mL (≈ 28.5 µM)

**Q.** What about the EC50 (HCoV-OC43 [3]; Betacoronavirus 1, OC43, 144 h, Huh-7 cells, 6 days, neutral red) of the same compound?
**A.** > 30 µM

**Q.** And the inhibition at 0.01 µM (HCoV-OC43 [3]; Betacoronavirus 1, OC43, Huh-7, 0.01 μM, mean of duplicates, read-out: Inhibition of OC43 Virus-Induced CPE in Huh-7 Cells)?
**A.** -0.4%

**Q.** And the inhibition at 0.04 µM (HCoV-OC43 [3]; Betacoronavirus 1, OC43, Huh-7, 0.04 μM, mean of duplicates, read-out: Inhibition of OC43 Virus-Induced CPE in Huh-7 Cells)?
**A.** -3%

**Q.** What about the inhibition at 0.12 µM (HCoV-OC43 [3]; Betacoronavirus 1, OC43, Huh-7, 0.12 μM, mean of duplicates, read-out: Inhibition of OC43 Virus-Induced CPE in Huh-7 Cells) of the same compound?
**A.** -1.2%

**Q.** And the inhibition at 0.4 µM (HCoV-OC43 [3]; Betacoronavirus 1, OC43, Huh-7, 0.4 μM, mean of duplicates, read-out: Inhibition of OC43 Virus-Induced CPE in Huh-7 Cells)?
**A.** -1.8%

**Q.** What about the inhibition at 1.1 µM (HCoV-OC43 [3]; Betacoronavirus 1, OC43, Huh-7, 1.1 μM, mean of duplicates, read-out: Inhibition of OC43 Virus-Induced CPE in Huh-7 Cells) of the same compound?
**A.** 5.4%

**Q.** And the inhibition at 3.3 µM (HCoV-OC43 [3]; Betacoronavirus 1, OC43, Huh-7, 3.3 μM, mean of duplicates, read-out: Inhibition of OC43 Virus-Induced CPE in Huh-7 Cells)?
**A.** 25.2%

**Q.** And the inhibition at 10 µM (HCoV-OC43 [3]; Betacoronavirus 1, OC43, Huh-7, 10 μM, mean of duplicates, read-out: Inhibition of OC43 Virus-Induced CPE in Huh-7 Cells)?
**A.** 30.7%

**Q.** What about the inhibition at 30 µM (HCoV-OC43 [3]; Betacoronavirus 1, OC43, Huh-7, 30 μM, mean of duplicates, read-out: Inhibition of OC43 Virus-Induced CPE in Huh-7 Cells) of the same compound?
**A.** -7.1%

**Q.** And the “Raw OD-Absorbance 490 nm” value (HCoV-OC43 [3]; 0.01 μM, listed as Compd. 1)?
**A.** 0.102 and 0.101

**Q.** And the “Raw OD-Absorbance 490 nm” value (HCoV-OC43 [3]; 0.04 μM, listed as Compd. 1)?
**A.** 0.078 and 0.089

**Q.** And the “Raw OD-Absorbance 490 nm” value (HCoV-OC43 [3]; 0.12 μM, listed as Compd. 1)?
**A.** 0.092 and 0.099

**Q.** What about the “Raw OD-Absorbance 490 nm” value (HCoV-OC43 [3]; 0.4 μM) of the same compound?
**A.** 0.092

**Q.** What about the “Raw OD-Absorbance 490 nm” value (HCoV-OC43 [3]; 1.1 μM, listed as Compd. 1) of the same compound?
**A.** 0.115 and 0.165

**Q.** What about the “Raw OD-Absorbance 490 nm” value (HCoV-OC43 [3]; 3.3 μM, listed as Compd. 1) of the same compound?
**A.** 0.292 and 0.253

**Q.** What about the “Raw OD-Absorbance 490 nm” value (HCoV-OC43 [3]; 10 μM, listed as Compd. 1) of the same compound?
**A.** 0.322 and 0.297

**Q.** And the “Raw OD-Absorbance 490 nm” value (HCoV-OC43 [3]; 30 μM, listed as Compd. 1)?
**A.** 0.057 and 0.056

**Q.** What about the CC50 at 4 days (in vitro [4]) of the same compound?
**A.** 13.5 µM

**Q.** What about the Cytotoxicity (H292 cells (NCI-H292)) of the same compound?
**A.** 57.72 µM

**Q.** What about the CC50 (in vitro [5]) of the same compound?
**A.** 37 µM

**Q.** What about the EC50 (HCoV-OC43 [6]; Betacoronavirus 1, NCI-H292, EC50, HCoV-OC43 infected H292 cells, MTT, read-out: Efficacy) of the same compound?
**A.** 1430 nM

**Q.** And the “antiviral activity against β-coronavirus OC43 in H292 cells (in words)” value (HCoV-OC43 [6]; viability of infected H292 cells, FIG. 6)?
**A.** significant antiviral effect

**Q.** What about the EC50 [7] of the same compound?
**A.** ~2400 nM and 2400 nM

**Q.** What about the EC50 [8] of the same compound?
**A.** 6.35 µM

**Q.** And the EC90 [8]?
**A.** > 100 µM

**Q.** What about the “Viability of Huh-7 Cells (A490)” value (Huh-7 cells; 0.01 μM) of the same compound?
**A.** 0.749 and 0.746

**Q.** And the “Viability of Huh-7 Cells (A490)” value (Huh-7 cells; 0.04 μM)?
**A.** 0.731 and 0.759

**Q.** What about the “Viability of Huh-7 Cells (A490)” value (Huh-7 cells; 0.12 μM) of the same compound?
**A.** 0.822 and 0.825

**Q.** What about the “Viability of Huh-7 Cells (A490)” value (Huh-7 cells; 0.37 μM) of the same compound?
**A.** 0.886 and 0.928

**Q.** And the “Viability of Huh-7 Cells (A490)” value (Huh-7 cells; 1.1 μM)?
**A.** 0.925 and 0.996

**Q.** And the “Viability of Huh-7 Cells (A490)” value (Huh-7 cells; 3.3 μM)?
**A.** 1.017 and 1.085

**Q.** What about the “Viability of Huh-7 Cells (A490)” value (Huh-7 cells; 10 μM) of the same compound?
**A.** 0.915 and 1.016

**Q.** And the “Viability of Huh-7 Cells (A490)” value (Huh-7 cells; 30 μM)?
**A.** 0.052 and 0.053

**Q.** And the “Viability of Huh-7 Cells (A490)” value (Huh-7 cells; 90 μM)?
**A.** 0.055 and 0.054

**Q.** And the CC50 [9]?
**A.** 15 µM

**Q.** What about the CC50 [10] of the same compound?
**A.** 29.3 µM

**Q.** And the IC50 ([11]; Severe acute respiratory syndrome coronavirus 2, Vero C1008, 48 h, read-out: Live SARS-CoV-2 Antiviral Assay IC50)?
**A.** 12.5 to 25 µM

**Q.** What about the viability at 25 µM ([11]; Severe acute respiratory syndrome coronavirus 2, Vero C1008, read-out: cell viability in the infected culture, of the levels observed in uninfected cells) of the same compound?
**A.** 80%

**Q.** What about the IC50 [12] of the same compound?
**A.** 6.66 µM

**Q.** And the CC50 [13]?
**A.** 13.2 µM

**Q.** And the EC50 (HCoV 229E)?
**A.** 3.64 µM

**Q.** And the “viability of Vero E6 cells (percent of vehicle alone)” value (Vero E6 cells; 1.56 μM)?
**A.** 101.0 ± 5.2%

**Q.** And the “viability of Vero E6 cells (percent of vehicle alone)” value (Vero E6 cells; 3.13 μM)?
**A.** 97.1 ± 5.2%

**Q.** What about the “viability of Vero E6 cells (percent of vehicle alone)” value (Vero E6 cells; 6.3 μM) of the same compound?
**A.** 86.2 ± 3.2%

**Q.** What about the “viability of Vero E6 cells (percent of vehicle alone)” value (Vero E6 cells; 12.5 μM) of the same compound?
**A.** 83.3 ± 1.7%

**Q.** And the “viability of Vero E6 cells (percent of vehicle alone)” value (Vero E6 cells; 25 μM)?
**A.** 80.7 ± 2.4%

**Q.** And the “viability of Vero E6 cells (percent of vehicle alone)” value (Vero E6 cells; 50 μM)?
**A.** 17.3 ± 8.4%

**Q.** What about the “viability of Vero E6 cells (percent of vehicle alone)” value (Vero E6 cells; 100 μM) of the same compound?
**A.** 2.0 ± 0.2%

**Q.** What about the “viability of Vero E6 cells (in words)” value (Vero E6 cells; Compound 1 at concentrations lower than 25 μM, HCQ at all concentrations tested) of the same compound?
**A.** not significantly changed

**Q.** What about the EC50 (HCoV OC43) of the same compound?
**A.** 6 µM

**Q.** What about the “prevention of the SARS-CoV-2 induced CPE (in words)” value [14] of the same compound?
**A.** partially prevented the virus induced cytopathic effect
